# According to the NIST ThermoML archive (doi:10.1021/je400140n):
# Numbers after ± are expanded uncertainties.
# Assay: molar heat capacity at constant pressure
# Settings: 101.33 kPa, Liquid, Small sample (50 mg) DSC
Compound,molar heat capacity at constant pressure (308.2 K) [J/K/mol],molar heat capacity at constant pressure (312.2 K) [J/K/mol],molar heat capacity at constant pressure (316.2 K) [J/K/mol],molar heat capacity at constant pressure (320.2 K) [J/K/mol],molar heat capacity at constant pressure (324.2 K) [J/K/mol],molar heat capacity at constant pressure (328.2 K) [J/K/mol],molar heat capacity at constant pressure (332.2 K) [J/K/mol],molar heat capacity at constant pressure (336.2 K) [J/K/mol],molar heat capacity at constant pressure (340.2 K) [J/K/mol],molar heat capacity at constant pressure (344.2 K) [J/K/mol],molar heat capacity at constant pressure (348.2 K) [J/K/mol],molar heat capacity at constant pressure (352.2 K) [J/K/mol],molar heat capacity at constant pressure (356.2 K) [J/K/mol],molar heat capacity at constant pressure (360.2 K) [J/K/mol],molar heat capacity at constant pressure (364.2 K) [J/K/mol],molar heat capacity at constant pressure (368.2 K) [J/K/mol],molar heat capacity at constant pressure (372.2 K) [J/K/mol],molar heat capacity at constant pressure (296.2 K) [J/K/mol],molar heat capacity at constant pressure (300.2 K) [J/K/mol],molar heat capacity at constant pressure (304.2 K) [J/K/mol]
O=S1(=O)CCCC1 [sulfolane],182.42 ± 29,183.5 ± 29,184.7 ± 30,185.9 ± 30,187.11 ± 30,188.79 ± 30,190.47 ± 31,192.39 ± 31,194.32 ± 31,196.36 ± 31,198.52 ± 32,200.81 ± 32,203.21 ± 33,205.73 ± 33,208.26 ± 33,210.9 ± 34,213.66 ± 34,–,–,–
CCn1cc[n+](C)c1.N#CN=C=[N-] [1-ethyl-3-methylimidazolium dicyanamide],329.96 ± 53,332.44 ± 53,334.21 ± 54,335.81 ± 54,337.76 ± 54,340.24 ± 55,342.89 ± 55,345.55 ± 55,348.21 ± 56,351.22 ± 56,354.41 ± 57,357.78 ± 57,361.15 ± 58,364.87 ± 59,368.59 ± 59,372.49 ± 60,376.74 ± 60,323.76 ± 52,325.88 ± 52,328.01 ± 53
CCn1cc[n+](C)c1.N#C[S-] [1-ethyl-3-methylimidazolium thiocyanate],286.2 ± 46,287.89 ± 46,289.25 ± 47,290.6 ± 47,292.12 ± 47,293.98 ± 47,296.18 ± 48,298.22 ± 48,300.59 ± 48,303.12 ± 49,305.49 ± 49,308.2 ± 49,310.91 ± 50,313.96 ± 50,317.17 ± 51,320.05 ± 51,323.43 ± 52,284.51 ± 46,284.17 ± 46,285.18 ± 46
CCCCn1cc[n+](C)c1.N#CN=C=[N-] [1-butyl-3-methylimidazolium dicyanamide],364.34 ± 58,365.98 ± 59,367.21 ± 59,368.65 ± 59,370.08 ± 60,372.14 ± 60,374.39 ± 60,377.47 ± 61,380.35 ± 61,383.63 ± 62,386.71 ± 62,390.4 ± 63,394.51 ± 63,398.82 ± 64,403.34 ± 65,408.26 ± 65,413.6 ± 67,359.41 ± 58,361.87 ± 58,363.1 ± 58
CCCCn1cc[n+](C)c1.N#C[S-] [1-butyl-3-methylimidazolium thiocyanate],321.21 ± 51,322.98 ± 52,324.36 ± 52,325.55 ± 52,326.93 ± 52,329.1 ± 53,331.27 ± 53,333.64 ± 54,336 ± 54,338.57 ± 54,341.13 ± 55,344.29 ± 55,347.05 ± 56,350.21 ± 56,353.37 ± 57,356.72 ± 57,360.27 ± 58,319.63 ± 51,319.63 ± 51,320.22 ± 51
CCn1cc[n+](C)c1.N#C[C-](C#N)C#N [1-ethyl-3-methyl-1H-imidazolium tricyanomethanide],363.82 ± 58,365.83 ± 59,367.44 ± 59,368.85 ± 59,370.26 ± 60,372.07 ± 60,374.49 ± 60,376.9 ± 61,379.31 ± 61,381.73 ± 61,384.35 ± 62,387.16 ± 62,390.18 ± 63,393 ± 63,396.22 ± 64,399.24 ± 64,403.06 ± 65,357.18 ± 57,360.2 ± 58,362.41 ± 58
